In patent US12515170B2, “CO2 capture and utilization system and method” (University of Kentucky Research Foundation, priority 2021, dated 2026):

Assays:
Scenedesmus acutus [1] = assay: Algae production in 800 mL bioreactors with different nitrogen sources / CO2:NH3 mole ratios; type: cell-based; settings: constant gas sparging, nitrogen source compared, no unit in Table 8 (FIG. 33: productivity g/L/day)
Experimental: To Examine the effect CO2:NH3 mole ratios on Scenedesmus acutus culture health and productivity, experiments were conducted in 800 mL bioreactors with constant gas sparging and different CO2:NH3 mole ratios (ranging from 7:1 up to 18:1) (FIG. 33). The “cycles” indicated in FIG. 33 refer to growth cycles of algae. In this regard, each bioreactor is normally inoculated with algae at a low concentration (e.g., 0.1 g/LO and the algae are allowed to grow until a concentration of 1 g/L is obtained. At this point, the algae are harvested until a concentration of 0.1 g/L is left in the bioreactor (with the addition of fresh nutrients and water). The algae are allowed to grow again until a concentration of 1 g/L is again reached, followed by harvesting. Each period of growth up to harvesting is characterized as a growth cycle.

Scenedesmus acutus [2] = settings: same molar N concentration; 3% CO2; 21 days; n=3
Experimental: In parallel, an experiment was performed using urea as a control (FIG. 13, tubes 1-3).
Experiments were conducted in a temperature controlled (20-27° C.) 10 L tubular photobioreactor system (FIG. 13). An artificial light system set to a 16:8 light/dark cycle (T5 cool white fluorescent bulbs) delivered 500 micromole m^−2 s^−1 PAR of photoactive radiation. CO2 was delivered as 3% CO2/nitrogen balance from gas cylinders. The experiments ran for 21 days.
Three times a week pH, UV-vis absorbance and dry mass measurements were made.

Structure (SMILES)	growth rate (Scenedesmus acutus [1])	algae growth rates by dry mass measurements versus urea control (Scenedesmus acutus [2])	culture productivity by UV-vis absorbance at 560 nm versus urea control (Scenedesmus acutus [2])
O=[N+]([O-])[O-].[Na+] [NaNO3]	0.13 ± 0.05		
N.N.O=C(O)O [(NH4)2CO3, ammonium carbonate]		significantly higher than for the control	significantly more productive than the control
NC(N)=O [Urea, urea]	0.11 ± 0.04		
